Reference: patent publication US7135556B2, “NPC1L1 (NPC3) and methods of use thereof” (Schering Corporation, priority 2002, dated 2006)

Columns and labels:
cholesterol absorption = experiment: Cholesterol absorption in mice, dual fecal isotope ratio method (cholesterol/sitostanol) (Example 24); format: in vivo, mouse; details: chow diet
Description: Cholesterol absorption in the mice was determined by the dual fecal isotope ratio method as described by Altmann et al. (Biochim. Biophys. Acta. 1580(1):77–93 (2002)). […] Mice were gavaged with ^14C-cholesterol (1 μCi, 0.1 mg unlabeled cholesterol) and ^3H-sitostanol (2 μCi) in 0.1 ml corn oil. Feces were collected for 2 days and fecal ^14C-cholesterol and ^3H-sitostanol levels were determined by combustion in a Packard Oxidizer. The fraction of cholesterol absorbed, as evaluated by the fecal dual isotope technique, was similar in wild type (+/+) and heterozygous mice (+/−) fed a chow diet (heterozygous mice absorbed 46±5% and age matched wild type mice absorbed 51±3% of the dose of ^14C-cholesterol).

SR-B1 = target: T1, SR-B1 (Mus musculus, UniProt Q61009); experiment: Cholesterol uptake assay (Example 4), [3H]-cholesterol, CHO cells expressing SR-B1; format: cell-based; details: 10 μM ezetimibe
T1 construct: expressed in transfected cells; host or cells: CHO cells
T1 sequence (Q61009 1-509): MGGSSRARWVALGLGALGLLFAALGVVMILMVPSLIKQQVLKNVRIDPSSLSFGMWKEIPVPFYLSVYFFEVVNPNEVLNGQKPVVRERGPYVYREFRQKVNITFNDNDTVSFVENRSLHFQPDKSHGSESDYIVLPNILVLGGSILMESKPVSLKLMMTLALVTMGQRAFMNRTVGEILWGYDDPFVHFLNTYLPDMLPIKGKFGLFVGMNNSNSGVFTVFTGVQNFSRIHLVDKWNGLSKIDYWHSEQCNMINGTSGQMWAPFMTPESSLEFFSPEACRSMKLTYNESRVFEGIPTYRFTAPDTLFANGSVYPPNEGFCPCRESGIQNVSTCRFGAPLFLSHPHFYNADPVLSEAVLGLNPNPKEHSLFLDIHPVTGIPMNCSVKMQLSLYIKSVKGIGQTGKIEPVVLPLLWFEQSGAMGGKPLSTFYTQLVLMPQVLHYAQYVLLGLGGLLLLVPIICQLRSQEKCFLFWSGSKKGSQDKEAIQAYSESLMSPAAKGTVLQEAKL
From the text: The cells were harvested and the lipids were organically extracted. The extracted lipids were spotted on thin-layer chromatography (TLC) plates and resolved within an organic vapor phase. The free cholesterol bands for each assay were isolated and counted in a scintillation counter.

untransfected CHO cells = experiment: FACS analysis of BODIPY-labeled ezetimibe binding, untransfected CHO cells; set-up: species or system chinese hamster; details: 100 nM BODIPY-labeled ezetimibe
Description: (§1) “BODIPY” is a fluorescent group which was used to detect the BODIPY-ezetimibe. Chinese hamster ovary (CHO) cells were transiently transfected with rat NPC1L1 DNA (rNPC1L1/CHO), mouse NPC1L1 DNA (mNPC1L1/CHO), mouse SR-B1 DNA (mSRBI/CHO) or EGFP DNA (EGFP/CHO). EGFP is enhanced green fluorescent protein which was used as a positive control. […] Control experiments were also performed wherein the cells were not labeled with the BODIPY-ezetimibe and wherein untransfected CHO cells were labeled with the BODIPY-ezetimibe.

mouse SR-B1 = target: T2, mouse SR-B1 (Mus musculus, UniProt Q61009); experiment: FACS analysis of BODIPY-labeled ezetimibe binding, mSRBI/CHO; details: 100 nM BODIPY-labeled ezetimibe
T2 construct: expressed in transfected cells
T2 sequence (Q61009 1-509): T1 sequence (Q61009 1-509)
Description: as §1

rat NPC1L1 = target: T3, rat NPC1L1 (Rattus norvegicus, UniProt Q6T3U3); experiment: FACS analysis of BODIPY-labeled ezetimibe binding, rNPC1L1/CHO; details: 100 nM BODIPY-labeled ezetimibe
T3 construct: using clone specific PCR primers to generate the ORF flanked by appropriate restriction sites; expressed in transfected cells
Description: as §1

mouse NPC1L1 = target: T4, mouse NPC1L1 (Mus musculus, UniProt Q6T3U4); experiment: FACS analysis of BODIPY-labeled ezetimibe binding, mNPC1L1/CHO; details: 100 nM BODIPY-labeled ezetimibe
T4 construct: using clone specific PCR primers to generate the ORF flanked by appropriate restriction sites; expressed in transfected cells
Description: as §1

| [3H]-cholesterol uptake (SR-B1) | Compound | fraction of cholesterol absorbed (of the dose of 14C-cholesterol) (cholesterol absorption; NPC1L1 knockout mice (−/−), ezetimibe 10 mg/kg/day) [%] | fraction of cholesterol absorbed (of the dose of 14C-cholesterol) (cholesterol absorption; wild type mice, ezetimibe 10 mg/kg daily) [%] | staining of cells (FACS) (untransfected CHO cells) | staining of cells (FACS) (mouse SR-B1) | staining of cells (FACS) (rat NPC1L1) | staining of cells (FACS) (mouse NPC1L1) |
| --- | --- | --- | --- | --- | --- | --- | --- |
| inhibited | O=C1[C@H](CC[C@H](O)c2ccc(F)cc2)[C@@H](c2ccc(O)cc2)N1c1ccc(F)cc1 [ezetimibe] | 16.2±0.6 | 16.1±0.3 | – | – | – | – |
| – | N-(4,4-difluoro-5.7-dimethyl-4-bora-3a.4a-diaza-s-indacene-3-vl)methyl iodoacetamide/ezetimibe [BODIPY-ezetimibe] | – | – | No staining | detected | No staining | No staining |
